The test system of test [1] is HCC1428 tumors. As to the kind of experiment: Cell line derived xenograft (CDX) study with HCC1428 tumors. Type of test: in vivo, BALB/c nude mice. As to the method:
For this xenograft, supplemental estradiol benzoate injections (40 μg/20 μl/mouse) are administered subcutaneously twice a week to BALB/c nude mice, starting one week prior to cell implantation and continuing through to the end of study. After implantation, HCC1428 tumor were allocated to treatment arms once a median tumor volume of about 181 mm^3 was reached. In Table 3A the abbreviation “p.o.” refers to oral administration and the abbreviation “QD×28” refers to administration once a day for 28 days.
Tumors were measured and mice were weighed twice a week during the experimental period. The tumor volume (mm3) was estimated using the formula: TV=a×b2/2, where “a” and “b” were the long and the short diameter of a tumor, respectively. The Tumor volumes were used to calculate tumor growth inhibition (TGI, an indicator of antitumor activity) using the formula: TGI %: (1−{T/T0/Ct/C0}/1−{C0/Ct})×100 where Tt=median tumor volume of treated at time t, T0=median tumor volume of treated at time 0, Ct=median tumor volume of control at time t and C0=median tumor volume of control at time 0.
For this xenograft, supplemental estradiol benzoate injections (40 μg/20 μl/mouse) are administered subcutaneously twice a week to BALB/c nude mice, starting one week prior to cell implantation and continuing through to the end of study. After implantation, HCC1428 tumor were allocated to treatment arms once a median tumor volume of about 181 mm^3 was reached. In Table 4A the abbreviation “p.o.” refers to oral administration and the abbreviation “QD×28” refers to administration once a day for 28 days.
Tumors were measured and mice were weighed twice a week during the experimental period. The tumor volume (mm^3) was estimated using the formula: TV=a×b2/2, where “a” and “b” were the long and the short diameter of a tumor, respectively. The Tumor volumes were used to calculate tumor growth inhibition (TGI, an indicator of antitumor activity) using the formula: TGI %: (1−{T/T0/Ct/C0}/1−{C0/Ct})×100 where Tt=median tumor volume of treated at time t, T0=median tumor volume of treated at time 0, Ct=median tumor volume of control at time t and C0=median tumor volume of control at time 0. […] At 100 mg/kg QD the mean tumor volume achieved was 116 mm3, on Day 71. The tumor growth inhibition (TGI) of these treatments compared with vehicle group on Day 28 or 71 of the treatment is summarized in Table 4B (See FIG. 3).

The subject of test [2] is MDA-MB-415. The test is described as follows: Cellular antiproliferative response, Assay 1 (nuclear counts). Type of test: cell-based. Particulars: Homo sapiens; MDA-MB-415, Wild Type, Assay 1, 5 population doublings; read-out: Log10 (IC50) (converted). How it is done:
(§1) Compound A was tested in a cell line panel. Cell lines were obtained from several different sources such as the American Type Culture Collection, Korean Cell Line Bank and Japanese Collection of Research Bioresources Cell Bank and cultured in the media as recommended by the source cell banks. All cell lines were grown at 37° C. at 5% CO2 and were passaged once or twice weekly with 0.25% Trypsin-EDTA (Fisher Scientific #25200056) and re-plated in 75 cm^2 culture flasks (Corning #3814).
(§2) The cell lines were plated in 96 well plates (Corning #3904) at density of 1000 cells/well. DMSO dissolved Compound A was then added using the TECAN liquid dispenser to generate a 9-point dose curve with a 3-fold dilution and 10 μM starting, top concentration. After 5 population doublings, the cell lines were treated with 5 μM of Vybrant DyeCycle Green (Life Technologies #V35004), incubated for 60 minutes and imaged using the Incucyte® S3 system to determine the nuclear counts. For all cell lines, the nuclear counts were normalized to the DMSO treated wells and the IC50 was determined using the standard four parametric dose response equation in GraphPad Prism Software.

Test [3] has as its system KPL-1. The test is described as above. In kind it is cell-based. Particulars: KPL-1, Wild Type, Assay 1, 5 population doublings; read-out: Log10 (IC50) (converted). How it is done: as §1, §2
The subject of test [4] is SK-BR-3. The description is as above. In kind it is cell-based. As to conditions: Homo sapiens; SK-BR-3, Wild Type, Assay 1, 5 population doublings; read-out: Log10 (IC50) (converted). As to the method: as §1, §2
Test [5] concerns MCF7. The description is as above. In kind it is cell-based. As to conditions: Homo sapiens; MCF7, Wild Type, Assay 1, 5 population doublings; read-out: Log10 (IC50) (converted). How it is done:
as §1, §2

The test system of test [6] is MDA-MB-453. Described as above. As to conditions: Homo sapiens; MDA-MB-453, Wild Type, Assay 1, 5 population doublings; read-out: Log10 (IC50) (converted). Type of test: cell-based. How it is done:
as §1, §2

Test [7] has as its system CAMA-1. The description is as above. In kind it is cell-based. As to conditions: Homo sapiens; CAMA-1, Wild Type, Assay 1, 5 population doublings; read-out: Log10 (IC50) (converted). How it is done:
as §1, §2

In test [8] the test system is Hs 578T. The description is as above. In kind it is cell-based. Particulars: Homo sapiens, Wild Type, Assay 1, 5 population doublings, read-out: Log10 (IC50) (converted). As to the method: as §1, §2
In test [9] the test system is BT-549. Described as above. In kind it is cell-based. As to conditions: Homo sapiens; BT-549, Wild Type, Assay 1, 5 population doublings; read-out: Log10 (IC50) (converted). As to the method:
as §1, §2

Test [10] deals with BT-20. Described as above. In kind it is cell-based. As to conditions: Homo sapiens; BT-20, Wild Type, Assay 1, 5 population doublings; read-out: Log10 (IC50) (converted). As to the method: as §1, §2
In test [11] the test system is T-47D. The test is described as above. Type of test: cell-based. Particulars: Homo sapiens, T47D, Wild Type, Assay 1, 5 population doublings, read-out: Log10 (IC50) (converted). How it is done: as §1, §2
The subject of test [12] is MDA-MB-231. Described as above. In kind it is cell-based. As to conditions: Homo sapiens; MDA-MB-231, Wild Type, Assay 1, 5 population doublings; read-out: Log10 (IC50) (converted). How it is done:
as §1, §2

Where [13] appears, read: 30 mg/kg p.o. QD × 28, Day 28, vs vehicle.

For `CC(C)C(=O)N1CCN(c2cc(S(=O)(=O)NC3(C#N)CC3)cc3c2cnn3-c2nnc(C(F)F)s2)C[C@H]1C` [Compound B], the “TGI (%) D28” value was found to be 81.7% in [1] (setting [13]); 89.0% in test [1] (100 mg/kg p.o. QD × 28, Day 28, vs vehicle); 94.6% in test [1] (300 mg/kg p.o. QD × 28, Day 28, vs vehicle). The mean tumor volume in [1] (Compound B study, 30 mg/kg QD, Day 28) came out at 165 mm^3; in [1] (Compound B study, 100 mg/kg QD, Day 28), 103 mm^3; in test [1] (Compound B study, 300 mg/kg QD, Day 28), 50 mm^3.

For the compound `C[C@H]1CN(c2cc(S(=O)(=O)NC3(C)CC3)cc3c2cnn3-c2nnc(C(F)F)s2)C[C@H](C)N1` [Compound A, 1-(5-(difluoromethyl)-1,3,4-thiadiazol-2-yl)-4-((3S,5S)-3,5-dimethylpiperazin-1-yl)-N-(1-methylcyclopropyl)-1H-indazole-6-sulfonamide], the concentration for half-maximal inhibition (IC50) in test [2] was 2.83 µM; in [3], 0.431 µM; in test [4], 0.131 µM; in test [5], 2.38 µM; in test [6], 2.02 µM; in [7], 0.844 µM. Also, the half-maximal inhibitory concentration (IC50) in test [8] was 3 µM; in test [9] it was 0.983 µM; in test [10], 2.41 µM; in test [11], 3.09 µM; in test [12], 0.85 µM. Besides, the “TGI (%) D28 or 71” value turned out to be 23% in [1] (3 mg/kg p.o. QD × 28, Day 28, vs vehicle); 54% in [1] (setting [13]); 103% in test [1] (100 mg/kg p.o. QD × 72, Day 71, vs vehicle). The mean tumor volume in test [1] (Compound A study, 3 mg/kg QD, Day 28) is given as 836 mm^3; in test [1] (Compound A study, 30 mg/kg QD, Day 28), 570 mm^3; in test [1] (Compound A study, 100 mg/kg QD, Day 71), 116 mm3.

The values above are taken from US20260216174A1, “TREATMENT OF ER+ BREAST CANCER COMPRISING HOMOLOGOUS RECOMBINATION DEFICIENCY USING PARG INHIBITOR” (IDEAYA BIOSCIENCES, INC., priority 2023, published 2026).
